Results on 16 compounds are retold here after US20240116951A1, “HETEROCYCLIC COMPOUNDS AND USES THEREOF” (Kumquat Biosciences Inc., priority 2022, published 2024).

Common to all, as to format: binding
In one assay the target is T1, KRAS G12S (Homo sapiens, UniProt P01116, G12S).
T1 construct: made in house; host or cells: E. coli, e.g. BL21 (DE3)
Put plainly: HTRF assay of K-Ras G12S interaction with SOS1 (PPI-HTRF). Particulars: 5 nM KRAS G12S, read-out: PPI-HTRF-5 nM KRAS G12S. Summed up:
(§1)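 GST-KRas + antiGST-Eu(K); His-hSOS1 + anti-6His-XL665. Buffer ~5 mM HEPES pH 7.4/150 mM NaCl/1 mM DTT/0.05% BSA/0.0025% Igepal. Cpd in DMSO, duplicates 10–0.01 μM; ≥10 min incubation, HTRF 620/665 nm, IC50 from ratio.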

For another assay, the target named is T2, KRAS WT (Homo sapiens, UniProt P01116).
T2 construct: made in house; host or cells: E. coli, e.g. BL21 (DE3)
T2 sequence (P01116 1-188 isoform P01116-2): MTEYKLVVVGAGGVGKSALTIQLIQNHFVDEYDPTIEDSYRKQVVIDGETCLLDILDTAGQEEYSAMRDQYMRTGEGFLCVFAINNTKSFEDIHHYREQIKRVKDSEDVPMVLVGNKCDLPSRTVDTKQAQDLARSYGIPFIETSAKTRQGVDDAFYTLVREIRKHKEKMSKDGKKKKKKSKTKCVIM
In words: HTRF assay of wildtype K-Ras interaction with SOS1 (PPI-HTRF). The conditions noted are these: HTRF, 5 nM KRAS WT; read-out: PPI-HTRF-5 nM KRAS WT. In short, it runs like this:
as §1

For the next assay, the target named is T3, KRAS G12D (Homo sapiens, UniProt P01116, G12D).
T3 construct: made in house; host or cells: E. coli, e.g. BL21 (DE3)
T3 sequence (P01116 1-188 isoform P01116-2 G12D): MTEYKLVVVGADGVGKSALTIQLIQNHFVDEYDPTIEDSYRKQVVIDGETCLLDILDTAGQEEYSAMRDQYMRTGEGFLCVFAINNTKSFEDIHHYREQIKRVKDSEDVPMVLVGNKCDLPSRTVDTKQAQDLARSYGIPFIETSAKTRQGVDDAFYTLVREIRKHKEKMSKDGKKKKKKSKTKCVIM
Put plainly: HTRF assay of K-Ras G12D interaction with SOS1 (PPI-HTRF). Particulars: HTRF, 5 nM KRAS G12D; read-out: PPI-HTRF-5 nM KRAS G12D. Summed up:
as §1

T1 sequence (P01116 1-188 isoform P01116-2 G12S): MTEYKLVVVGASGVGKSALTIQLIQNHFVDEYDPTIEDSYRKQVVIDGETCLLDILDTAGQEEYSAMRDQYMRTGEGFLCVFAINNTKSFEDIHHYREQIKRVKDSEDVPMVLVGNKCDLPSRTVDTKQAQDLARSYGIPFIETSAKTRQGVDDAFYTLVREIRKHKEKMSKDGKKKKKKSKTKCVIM

For the compound `N#Cc1c(N)sc2c(F)ccc(-c3c(F)c4nc(OC[C@@]56CCCN5C[C@H](F)C6)nc(N5CCC6(CCN6C(=O)n6cncn6)C5)c4c(=O)n3C3CC3)c12` (stereo partly drawn) [Compound 267, 4-(4-(1-(1H-1,2,4-triazole-1-carbonyl)-1,6-diazaspiro[3.4]octan-6-yl)-6-cyclopropyl-8-fluoro-2-(((2R,7aS)-2-fluorotetrahydro-1H-pyrrolizin-7a(5H)-yl)methoxy)-5-oxo-5,6-dihydropyrido[4,3-d]pyrimidin-7-yl)-2-amino-7-fluorobenzo[b]thiophene-3-carbonitrile], the IC50 on KRAS G12S, on KRAS WT and on KRAS G12D was below 5 µM each time.
For the compound `N#Cc1c(N)sc2c(F)ccc(-c3c(Cl)cc4c(N5CCC6(CCN6C(=O)C(F)Cl)C5)nc(OC[C@@]56CCCN5C[C@H](F)C6)nc4c3F)c12` (stereo partly drawn) [Compound 244, 2-amino-4-(6-chloro-4-(1-(2-chloro-2-fluoroacetyl)-1,6-diazaspiro[3.4]octan-6-yl)-8-fluoro-2-(((2R,7aS)-2-fluorotetrahydro-1H-pyrrolizin-7a(5H)-yl)methoxy)quinazolin-7-yl)-7-fluorobenzo[b]thiophene-3-carbonitrile], the IC50 on KRAS G12S, on KRAS WT and at KRAS G12D was below 5 µM each time.
For the compound `C[C@H](Oc1nc(N2CCC3(CCCN3C(=O)n3cncn3)C2)c2cc(Cl)c(-c3ccc(F)c4sc(N)c(C#N)c34)c(F)c2n1)[C@@H]1CCCN1C` (stereo partly drawn) [Compound 241, 4-(4-(1-(1H-1,2,4-triazole-1-carbonyl)-1,7-diazaspiro[4.4]nonan-7-yl)-6-chloro-8-fluoro-2-((S)-1-((S)-1-methylpyrrolidin-2-yl)ethoxy)quinazolin-7-yl)-2-amino-7-fluorobenzo[b]thiophene-3-carbonitrile], the IC50 at KRAS G12S, at KRAS WT and at KRAS G12D was below 5 µM each time.
Consider `CN1CCC[C@H]1COc1nc2c(c(N3CCC4(CCN4C(=O)n4cncn4)C3)n1)CCN(c1cccc3cccc(Cl)c13)C2` (stereo partly drawn) [Compound 245, (6-(7-(8-chloronaphthalen-1-yl)-2-(((S)-1-methylpyrrolidin-2-yl)methoxy)-5,6,7,8-tetrahydropyrido[3,4-d]pyrimidin-4-yl)-1,6-diazaspiro[3.4]octan-1-yl)(1H-1,2,4-triazol-1-yl)methanone], for which the IC50 on KRAS G12S, on KRAS WT and on KRAS G12D was above 5 µM each time.
For the compound `N#Cc1c(N)sc2c(F)ccc(-c3c(Cl)cc4c(N5CCC6(CCCN6C(=O)[C@@H]6N[C@H]6C6CC6)CC5)nc(OC[C@@]56CCCN5C[C@H](F)C6)nc4c3F)c12` [Compound 295, 2-amino-4-(6-chloro-4-(1-((2R,3S)-3-cyclopropylaziridine-2-carbonyl)-1,8-diazaspiro[4.5]decan-8-yl)-8-fluoro-2-(((2R,7aS)-2-fluorotetrahydro-1H-pyrrolizin-7a(5H)-yl)methoxy)quinazolin-7-yl)-7-fluorobenzo[b]thiophene-3-carbonitrile], the IC50 at KRAS G12S, on KRAS WT and at KRAS G12D was below 5 µM in each case.
Take `N#CCC(=O)N1CC[C@@]12CCN(c1nc(OC[C@@]34CCCN3C[C@H](F)C4)nc3c(F)c(-c4ccc(F)c5sc(N)c(C#N)c45)c(Cl)cc13)C2` [Compound 316]: the IC50 on KRAS G12S, on KRAS WT and on KRAS G12D was below 5 µM throughout.
Regarding `N#Cc1c(N)sc2c(F)ccc(-c3c(Cl)cc4c(N5CCOCC6(CCN6C(=O)n6cncn6)C5)nc(OC[C@@]56CCCN5C[C@H](F)C6)nc4c3F)c12` (stereo partly drawn) [Compound 351, 4-(4-(1-(1H-1,2,4-triazole-1-carbonyl)-6-oxa-1,9-diazaspiro[3.6]decan-9-yl)-6-chloro-8-fluoro-2-(((2R,7aS)-2-fluorotetrahydro-1H-pyrrolizin-7a(5H)-yl)methoxy)quinazolin-7-yl)-2-amino-7-fluorobenzo[b]thiophene-3-carbonitrile], the IC50 at KRAS G12S, on KRAS WT and at KRAS G12D was below 5 µM each time.
On to `N#Cc1c(N)sc2c(F)ccc(-c3c(Cl)cc4c(N5CCCC6(CCN6C(=O)n6cncn6)C5)nc(OC[C@@]56CCCN5C[C@H](F)C6)nc4c3F)c12` (stereo partly drawn) [Compound 275, 4-(4-(1-(1H-1,2,4-triazole-1-carbonyl)-1,6-diazaspiro[3.5]nonan-6-yl)-6-chloro-8-fluoro-2-(((2R,7aS)-2-fluorotetrahydro-1H-pyrrolizin-7a(5H)-yl)methoxy)quinazolin-7-yl)-2-amino-7-fluorobenzo[b]thiophene-3-carbonitrile], for which the IC50 on KRAS G12S, at KRAS WT and at KRAS G12D was below 5 µM each time.
`N#Cc1c(N)sc2c(F)ccc(-c3c(Cl)cc4c(N5CCCCC6(CCCN6C(=O)n6cncn6)C5)nc(OC[C@@]56CCCN5C[C@H](F)C6)nc4c3F)c12` (mixture of isomers) [Compound 349, 4-(4-(1-(1H-1,2,4-triazole-1-carbonyl)-1,7-diazaspiro[4.6]undecan-7-yl)-6-chloro-8-fluoro-2-(((2R,7aS)-2-fluorotetrahydro-1H-pyrrolizin-7a(5H)-yl)methoxy)quinazolin-7-yl)-2-amino-7-fluorobenzo[b]thiophene-3-carbonitrile]: the IC50 at KRAS G12S, on KRAS WT and at KRAS G12D was below 5 µM each time.
Regarding `Nc1nc2c(-c3c(Cl)cc4c(N5CC6(CNCCN6)C5)nc(OC[C@@]56CCCN5C[C@H](F)C6)nc4c3F)ccc(F)c2s1` [Compound 205, 4-(6-chloro-8-fluoro-2-(((2R,7aS)-2-fluorotetrahydro-1H-pyrrolizin-7a(5H)-yl)methoxy)-4-(2,5,8-triazaspiro[3.5]nonan-2-yl)quinazolin-7-yl)-7-fluorobenzo[d]thiazol-2-amine], the IC50 at KRAS G12S, on KRAS WT and at KRAS G12D was below 5 µM throughout.
As to `N#Cc1c(N)sc2c(F)ccc(-c3c(Cl)cc4c(N5CCC6(CCCN6C(=O)C6CC6(F)F)CC5)nc(OC[C@@]56CCCN5C[C@H](F)C6)nc4c3F)c12` (stereo partly drawn) [Compound 341, 2-amino-4-(6-chloro-4-(1-(2,2-difluorocyclopropane-1-carbonyl)-1,8-diazaspiro[4.5]decan-8-yl)-8-fluoro-2-(((2R,7aS)-2-fluorotetrahydro-1H-pyrrolizin-7a(5H)-yl)methoxy)quinazolin-7-yl)-7-fluorobenzo[b]thiophene-3-carbonitrile], the IC50 on KRAS G12S, at KRAS WT and on KRAS G12D was below 5 µM in each case.
Consider `N#Cc1c(N)sc2c(F)ccc(-c3c(Cl)cc4c(N5CCC6(CCN6C=O)C5)nc(OC[C@@]56CCCN5C[C@H](F)C6)nc4c3F)c12` (stereo partly drawn) [Compound 227, 2-amino-4-(6-chloro-8-fluoro-2-(((2R,7aS)-2-fluorotetrahydro-1H-pyrrolizin-7a(5H)-yl)methoxy)-4-(1-formyl-1,6-diazaspiro[3.4]octan-6-yl)quinazolin-7-yl)-7-fluorobenzo[b]thiophene-3-carbonitrile], for which the IC50 at KRAS G12S, on KRAS WT and at KRAS G12D was below 5 µM throughout.
As to `N#CCC1CN(c2nc(OC[C@@]34CCCN3C[C@H](F)C4)nc3c(F)c(-c4ccc(F)c5sc(N)c(C#N)c45)c(Cl)cc23)CC12CCN2C(=O)n1cnc(C(F)F)n1` (stereo partly drawn) [Compound 329, 2-amino-4-(6-chloro-4-(8-(cyanomethyl)-1-(3-(difluoromethyl)-1H-1,2,4-triazole-1-carbonyl)-1,6-diazaspiro[3.4]octan-6-yl)-8-fluoro-2-(((2R,7aS)-2-fluorotetrahydro-1H-pyrrolizin-7a(5H)-yl)methoxy)quinazolin-7-yl)-7-fluorobenzo[b]thiophene-3-carbonitrile], the IC50 on KRAS G12S, on KRAS WT and on KRAS G12D was below 5 µM each time.
On to `CN1CCC[C@H]1COc1nc(N2CCC3(CCN3C(=O)n3cncn3)C2)c2cc(Cl)c(-c3ccc(F)c4sc(N)c(C#N)c34)c(F)c2n1` (stereo partly drawn) [Compound 319, 4-(4-(1-(1H-1,2,4-triazole-1-carbonyl)-1,6-diazaspiro[3.4]octan-6-yl)-6-chloro-8-fluoro-2-(((S)-1-methylpyrrolidin-2-yl)methoxy)quinazolin-7-yl)-2-amino-7-fluorobenzo[b]thiophene-3-carbonitrile], for which the IC50 on KRAS G12S, on KRAS WT and at KRAS G12D was below 5 µM in each case.
On to `C[C@H](Oc1nc(N2CC[C@@]3(CCN3C(=O)n3cncn3)C2)c2cc(Cl)c(-c3ccc(F)c4sc(N)c(C#N)c34)c(F)c2n1)[C@@H]1CCCN1C` (single isomer, unassigned) [Compound 299], for which the IC50 at KRAS G12S, on KRAS WT and at KRAS G12D was below 5 µM each time.
For the compound `CC(C)c1ncn(C(=O)N2CCC23CCN(c2nc(OC[C@@]45CCCN4C[C@H](F)C5)nc4c(F)c(-c5ccc(F)c6sc(N)c(C#N)c56)c(Cl)cc24)C3)n1` (stereo partly drawn) [Compound 304, 2-amino-4-(6-chloro-8-fluoro-2-(((2R,7aS)-2-fluorotetrahydro-1H-pyrrolizin-7a(5H)-yl)methoxy)-4-(1-(3-isopropyl-1H-1,2,4-triazole-1-carbonyl)-1,6-diazaspiro[3.4]octan-6-yl)quinazolin-7-yl)-7-fluorobenzo[b]thiophene-3-carbonitrile], the IC50 on KRAS G12S, at KRAS WT and on KRAS G12D was below 5 µM throughout.
